{"source": "patent US20230047788A1", "about": "“COMPOSITIONS COMPRISING 5-CHOLESTEN-3, 25-DIOL, 3-SULFATE (25HC3S) OR PHARMACEUTICALLY ACCEPTABLE SALT THEREOF AND AT LEAST ONE CYCLIC OLIGOSACCHARIDE” (Virginia Commonwealth University, priority 2016, published 2023)", "key": {"[1]": {"conditions": "dog, in vivo", "experimental": "Injection routes of administration used were intramuscular, intravenous or subcutaneous. The following example is a representative injection study.\nBeagle dogs (n=5/dose group) received a single intravenous bolus injection or a single subcutaneous injection. The parenteral solution that was tested included 25 mg/mL of 25HC3S sodium salt in vehicle (200 mg/mL hydroxypropyl betadex with 10 mM sodium phosphate buffers, in water). The intravenous dose level of 2.5 mg/kg was administered in a dose volume of 0.1 mL/kg whereas the subcutaneous injection dose level of 20 mg/kg was administered in a dose volume of 0.8 mL/kg. Whole blood samples were collected at pre-dose, 0.5, 1, 2, 4, 8, 12, 24, 32 and 48 hours (h) post dose and the resulting plasma samples underwent analyses to quantify 25HC3S levels. During the in-life period, animals were observed daily for mortality and moribundity with clinical examinations conducted daily."}, "[2]": {"test_system": "CLP surgery-induced sepsis model", "assay": "Survival in rodent model of surgically-induced sepsis (cecum ligation puncture)", "format": "in vivo, CD rats", "conditions": "30 mg/kg sc within 30 minutes after surgery, end of study (3 days or 72 hours), N=5", "method": "The subjects for the study were 10 male CD rats (12-13 weeks of age, 400-450 g).\nA solution formulation of 25HC3S sodium salt and its respective vehicle was used for the study. The Vehicle was a solution of 40 mg/mL hydroxypropyl betadex with 10 mM sodium phosphate buffer in 70% (v/v) of 0.9% (w/v) sodium chloride and 30% (v/v) of sterile water. 25HC3S sodium salt was pre-dissolved into the Vehicle solution to result in a drug concentration of 5 mg/mL. The 25HC3S solution was ready-to-use at the start of dosing. Both the vehicle and 25HC3S solution were stored at room temperature. Before dosing, the 25HC3S solution was confirmed to be clear and void of any precipitation. Otherwise, if precipitation was observed, the solution was to be sonicated at room temperature for 10 minutes to dissolve particulates.\nThe CLP procedure is an established and widely-used approach to investigate the progression and characteristics of clinical sepsis. On the day of surgery, animals were weighed and monitored for their baseline temperature. Animals were anesthetized with isoflurane and depth of anesthesia was checked by toe-pinching. Dipyrone (an analgesic) was given subcutaneously prior to surgery. […]\nRats were monitored for survival for 3 days after CLP surgery and 25HC3S treatment. […]\nAnimals were monitored for mortality, “clinical signs” and pain level. […]"}, "[3]": {"test_system": "LPS endotoxin shock model", "assay": "Survival in rodent model of LPS endotoxin shock", "format": "in vivo, C57BL/6J mice", "conditions": "LPS 5 mg/kg iv; 50 mg/kg 25HC3S ip 2 hours prior to LPS; six days after LPS; N=10", "method": "The subjects for the study were 20 male C57BL/6J mice (20-22 weeks of age, 27-35 g).\nA solution formulation of 25HC3S and its respective vehicle was used for the study. The vehicle was a solution of 4% (w/v) hydroxypropyl betadex, 10% (w/v) dextrose, with 10 mM sodium phosphate buffer in sterile water. Vehicle was stored at 2-8° C. storage and placed at room temperature for 30 minutes prior to dosing.\n25HC3S sodium salt was pre-dissolved into the vehicle solution to result in a drug concentration of 5 mg/mL. The 25HC3S solution was ready-to-use at the start of dosing. It was also stored at 2-8° C. storage and placed at room temperature for 30 minutes prior to dosing the mice.\n50 mg/kg of 25HC3S in vehicle or vehicle alone (N=10/group) were administered to mice once by intraperitoneal injection 2 hours prior to LPS delivery. A semi-lethal dose of LPS (5 mg/kg) was given by intravenous injection to the tail vein in order to induce an acute inflammatory response that mimics systemic sepsis-like conditions.\nMice were monitored for survival for 6 days after 25HC3S and LPS treatments. Animal checks for mortality were performed twice daily during the 6 day observation period. Animals were examined for any altered clinical signs, including gross motor and behavioral activity, and observable changes in appearance. […]"}, "[4]": {"assay": "Osmolality of 30 mg/mL 25HC3S, 250 mg/mL HPbCD, 10 mM phosphate solution", "format": "physicochemical", "conditions": "30 mg/mL 25HC3S sodium salt, 10 mM sodium phosphate buffer in water", "method": "The optimal concentration of HPbCD to solubilize a high amount of 25HC3S, and to contain a small amount of buffer (10 mM phosphate buffer) to minimize pH changes on stability, is 250 mg/mL HPbCD. The solution of 30 mg/mL 25HC3S sodium salt, 250 mg/mL HPbCD with 10 mM sodium phosphate buffer in water has an osmolality of approximately 320 mmol/kg. Isotonic solutions range from 270-340 mmol/kg. Higher concentrations of HPbCD greater than 250 mg/mL with higher than 30 mg/mL concentrations of 25HC3S lead to hypertonic solutions. Hypertonic solutions can cause pain upon subcutaneous and intramuscular injection. Conversely, concentrations of HPbCD much less than 250 mg/mL with much less than 30 mg/mL concentrations of 25HC3S require the addition of an isotonic agent, such as sodium chloride or mannitol, to bring the isotonicity into the expected range for a parenteral dosage form."}}, "note": "Where two headings read alike, the source gives them in different places."}
{"compound": "C[C@H](CCCC(C)(C)O)[C@H]1CC[C@H]2[C@@H]3CC=C4C[C@@H](OS(=O)(=O)[O-])CC[C@]4(C)[C@H]3CC[C@]12C.[Na+]", "note": "[25HC3S, 5-cholesten-3, 25-diol, 3-sulfate]", "values": [{"measurement": "AUCall, Mean (SD)", "setting": "[1]; iv", "result": "489 (464) ng * hr/mL"}, {"measurement": "Cmax", "setting": "[1]; iv", "result": 439, "unit": "ng/mL"}, {"measurement": "Tmax, Mean (SD)", "setting": "[1]; iv", "result": "0.5 (0) hr"}, {"measurement": "Cmax", "setting": "[1]; iv, 2.5 mg/kg", "result": 439, "unit": "ng/mL"}, {"measurement": "mean AUClast", "setting": "[1]; iv, 2.5 mg/kg", "result": 478, "unit": "ng·h/mL"}, {"measurement": "plasma levels at 8h", "setting": "[1]; iv, 2.5 mg/kg", "result": "no observable levels in most animals (n=4)"}, {"measurement": "time point of maximal concentration", "setting": "[1]; iv, 2.5 mg/kg", "result": 0.5, "unit": "h"}, {"measurement": "AUCall, Mean (SD)", "setting": "[1]; sc", "result": "19676 (3716) ng * hr/mL"}, {"measurement": "Cmax", "setting": "[1]; sc", "result": 3940, "unit": "ng/mL"}, {"measurement": "Tmax, Mean (SD)", "setting": "[1]; sc", "result": "1.8 (1.3) hr"}, {"measurement": "observed bioavailability", "setting": "[1]; sc", "result": 0.7}, {"measurement": "AUClast", "setting": "[1]; sc, 20 mg/kg", "result": 19503, "unit": "ng·h/mL"}, {"measurement": "Cmax", "setting": "[1]; sc, 20 mg/kg", "result": 3936, "unit": "ng/mL"}, {"measurement": "rats that had died", "setting": "[2]", "result": 60, "unit": "%"}, {"measurement": "mice that had died", "setting": "[3]", "result": 40, "unit": "%"}, {"measurement": "Osmolality", "setting": "[4]", "result": "approximately 320 mmol/kg"}]}
